Results from patent US10945978B2, “Treatment and diagnosis of melanoma” (The Rockefeller University, priority 2012, dated 2021).
Counter-ions that a name gives are not always drawn.

Legend:
[1] = system: human umbilical vein endothelial cells (HUVEC's); test: Endothelial recruitment assay (HUVEC migration towards melanoma cells); format: cell-based; conditions: for ability of melanoma cells to recruit endothelial cells: MeWo, HT-144, SK-Mel-2, SK-Mel-334.2, 1 μM for 72 hours
Description: 5×10^4 cancer cells were seeded into 24-well plates approximately 24 hours prior to the start of the assay. HUVEC's were grown to 80% confluency and serum starved in EGM-2 media supplemented with 0.2% FBS for 16 hours. HUVEC's were then pulsed with Cell Tracker Red CMTPX dye (C34552, Invitrogen) for 45 minutes. Meanwhile, cancer cells were washed with PBS, 0.5 mL of 0.2% FBS EGM-2 media was added to each well, and a 3.0 μm HTS Fluoroblock insert (351151, BD Falcon, San Jose, Calif.) was placed into each well. 1×10^5 HUVEC's, resuspended in 0.5 mL of starvation media, were seeded into each trans-well insert, and the recruitment assay was allowed to proceed for 16-18 hours at 37° C. For neutralization antibody and/or recombinant protein experiments, antibody/protein was then added to each well at the appropriate concentration as indicated in the figures: 40 μg/mL anti-ApoE 1D7, 40 μg/mL anti-IgG, 100 μM rhApoE3, and 100 μM BSA. Upon completion of the assay, the inserts were processed and analyzed as described for the matrigel invasion assay above (See Matrigel Invasion Assay).
The endothelial recruitment assay was carried out as previously described (Pencheva et al., 2012; Png et al., 2012). Melanoma cells were treated with DMSO, GW3965, T0901317, or Bexarotene at 1 μM for 56 hours, after which 5×10^4 cells were seeded in a 24-well plate in the presence of each drug and allowed to attach for 16 hours prior to starting the assay. HUVEC cells were serum-starved overnight in EGM-2 media containing 0.2% FBS. The following day, 1×10^5 HUVEC cells were seeded into a 3.0 μm HTS Fluoroblock trans-well migration insert (351151, BD Falcon, San Jose, Calif.) fitted into each well containing cancer cells at the bottom. The HUVEC cells were allowed to migrate towards the cancer cells for 20 hours at 37° C., after which the inserts were processed as previously described (Pencheva et al., 2012). For ApoE antibody neutralization experiments, 40 μg/mL 1D7 anti-ApoE blocking antibody (Heart Institute, University of Ottawa, Ottawa, Canada) or 40 μg/mL anti-IgG control antibody (AB-108-C, R&D Systems, Minneapolis, Minn.) was added to each trans-well insert at the start of the assay.
Subsequently, 5×10^4 cancer cells were seeded into 24-well plates in the presence of each drug or DMSO and allowed to attach for 16 hours prior to starting the assay. Human umbilical vein endothelial cells (HUVEC cells) were serum-starved in 0.2% FBS-containing media overnight. The following day, 1×10^5 HUVEC cells were seeded into a 3.0 μm HTS Fluoroblock insert (351151, BD Falcon) fitted into each well containing the cancer cells at the bottom. The HUVEC cells were allowed to migrate towards the cancer cells for 20 hours, after which the inserts were washed in PBS, fixed in 4% PFA, labeled with DAPI, and mounted on slides. The basal side of each insert was imaged using an inverted fluorescence microscope (Zeiss Axiovert 40 CFL) at 5× magnification, and the number of DAPI-positive cells was quantified using ImageJ.

[2] = system: MeWo, MeWo-LM2, HT-144, SK-Mel-2 and SK-Mel-334.2 human melanoma cells; test: Trans-well matrigel cell invasion assay, melanoma cells; format: cell-based; conditions: for ability of melanoma cells to invade through matrigel: MeWo, HT-144, SK-Mel-2, SK-Mel-334.2, 1 μM for 72 hours
Description: Cancer cells were serum-starved in 0.2% FBS DMEM-based media for 12 hours. Trans-well invasion chambers (354480, BD Biosciences, Bedford, Mass.) were pre-equilibrated prior to beginning the assay by adding 0.5 mL of starvation media to the top and bottom chambers. After 30 minutes, the media in the top chamber was removed, and 0.5 mL of media containing 1×10^5 cancer cells was added into each matrigel-coated trans-well insert and incubated at 37° C. for 24 hours. For neutralization antibody and/or recombinant protein experiments, antibody/recombinant protein was added to each well at the start of the assay at the following concentrations as indicated in the figures: 5-40 μg/mL anti-ApoE 1D7 (Heart Institute, University of Ottawa), 5-40 μg/mL anti-IgG (AB-108-C, R&D Systems, Minneapolis, Minn.), 100 μM recombinant human ApoE3 (4696, BioVision, Mountain View, Calif.), and 100 μM BSA (A2153, Sigma-Aldrich). Upon completion of the assay, matrigel-coated inserts were washed with PBS, the cells at the top side of each insert were scraped off, and the inserts were fixed in 4% paraformaldehyde for 15 minutes. The inserts were then cut out and mounted onto slides using VectaShield mounting medium containing DAPI (H-1000, Vector Laboratories, Burlingame, Calif.). The basal side of each insert was imaged using an inverted fluorescence microscope (Zeiss Axiovert 40 CFL) at 5× magnification, taking three representative images for each insert. The number of invaded cells was quantified using ImageJ (NIH).
The cell invasion assay was performed as previously described in detail (Pencheva et al., 2012) using a trans-well matrigel invasion chamber system (354480, BD Biosciences). In brief, various melanoma cells were cultured in the presence of DMSO, GW3965, T0901317, or Bexarotene at 1 μM for 56 hours, after which melanoma cells were switched to starvation media (0.2% FBS) for 16 hours in the presence of each drug. Following starvation, cells were seeded into matrigel-coated trans-well inserts, and the invasion assay was allowed to proceed for 24 hours at 37° C. For ApoE antibody neutralization experiments, 40 μg/mL 1D7 anti-ApoE blocking antibody (Heart Institute, University of Ottawa, Ottawa, Canada) or 40 t g/mL anti-IgG control antibody (AB-108-C, R&D Systems, Minneapolis, Minn.) was added to each trans-well insert at the start of the assay.
The cells were then serum starved for 16 hours in 0.2% FBS media in the presence of each corresponding drug or DMSO. Following serum starvation, the cells were subjected to the trans-well invasion assay using a matrigel invasion chamber system (354480, BD Biosciences). Invasion chambers were pre-equilibrated prior to the assay by adding 0.5 mL of starvation media to the top and bottom wells. Meanwhile, cancer cells were trypsinized and viable cells were counted using trypan blue. Cancer cells were then resuspended at a concentration of 2×10^5 cells/1 mL starvation media, and 0.5 mL of cell suspension, containing 1×10^5 cells, was seeded into each trans-well. The invasion assay was allowed to proceed for 24 hours at 37° C. […] Following fixation, the inserts were washed in PBS, cut out, and mounted onto slides using VectaShield mounting medium containing DAPI nuclear stain (H-1000, Vector Laboratories). The basal side of each insert was imaged using an inverted fluorescence microscope (Zeiss Axiovert 40 CFL) at 5× magnification, and the number of DAPI-positive cells was quantified using ImageJ.

[3] = MeWo cells pre-treated 48 hours
[4] = metastatic LM2 cells, recombinant ApoE3 100 μM vs BSA

Molecule | endothelial recruitment [1, 3] | ability of melanoma cells to recruit endothelial cells [1] | tumor cell invasion [2, 3] | ability of melanoma cells to invade through matrigel [2] | migration of endothelial cells towards highly metastatic cancer cells ([1]; endothelial cells pre-incubated with ApoE3 100 μM for 24 hours, LM2 cells) | endothelial recruitment [1, 4] | invasion [2, 4]
O=C(O)Cc1cccc(OCCCN(Cc2cccc(C(F)(F)F)c2Cl)CC(c2ccccc2)c2ccccc2)c1 [GW3965 2, 3-[3-[N-(2-Chloro-3-trifluoromethylbenzyl)-(2,2-diphenylethyl)amino]propyloxy] phenylacetic acid hydrochloride] | decreased | consistently suppressed | decreased | consistently suppressed |  |  | 
O=S(=O)(c1ccccc1)N(CC(F)(F)F)c1ccc(C(O)(C(F)(F)F)C(F)(F)F)cc1 [T0901317 1] |  | consistently suppressed |  | consistently suppressed |  |  | 
recombinant human ApoE: recombinant human ApoE3 (4696, BioVision) |  |  |  |  | significantly reduced | significantly suppressed | significantly suppressed
